Patent US20240115681A1 (priority 2022, published 2024)
In the oligonucleotide strings, read from the 5' end, every base follows the letter of its sugar. An asterisk marks phosphorothioate; unmarked linkages are phosphodiester. Other units and linkages are bracketed, terminal groups are in braces. A string of capitals states the bases alone. d = 2'-deoxy (DNA)

Assays:
[1] = test system: recombinant S protein; set-up: species or system SARS-CoV-2; settings: in vivo
[2] = test system: Mouse BMDCs; assay: Surface marker expression on BMDCs by flow cytometry; assay type: cell-based; settings: CpG-2722 5 μg/ml, c-di-AM(PS)2 1 μg/ml, 24 h, CD11c+ cells (FIG. 6)
[3] = test system: Mouse splenocytes; assay: Cytokine expression in splenocytes by RT-qPCR; assay type: cell-based; settings: 4 h (FIG. 8)
[4] = test system: splenocytes; assay: Antigen-dependent T helper responses: cytokine ELISA of RBD-stimulated splenocytes from immunized mice; assay type: in vivo, mouse; settings: splenocytes of intramuscularly immunized mice stimulated with RBD for 96 h (FIG. 5A-5C)
[5] = test system: Mouse BMDCs; assay: Cytokine expression in BMDCs by RT-qPCR; assay type: cell-based; settings: 4 h (FIG. 7); for expression of cytokine genes (TNF-α, IL-1β, IL-6, IL-12A, IL-12B, IL-23A, IFN-β, IFN-γ): CpG-2722 5 μg/ml, c-di-AM(PS)2 1 μg/ml
[6] = test system: mouse embryonic fibroblasts (MEFs); assay: Cytokine expression in MEFs by RT-qPCR; assay type: cell-based; settings: CpG-2722 5 μg/ml, c-di-AM(PS)2 1 μg/ml, 4 h (FIG. 10)
[7] = test system: Mouse PBMCs; assay: Cytokine expression in PBMCs by RT-qPCR; assay type: cell-based; settings: CpG-2722 5 μg/ml, c-di-AM(PS)2 1 μg/ml, 4 h (FIG. 9)
[8] = test system: influenza VLP (viral like particle); assay: Antibody titers after intranasal influenza VLP/adjuvant vaccines in BALB/c mice; settings: intranasal days 0, 15, 29, after the 3rd vaccination (day 42) (FIG. 15B)
[9] = test system: NHRI-HN1 syngeneic orthotopic cancer animal model; set-up: species or system mice; settings: mouse, in vivo

`Nc1ncnc2c1ncn2[C@@H]1O[C@@H]2COP(O)(=S)O[C@@H]3C(O)[C@@H](COP(O)(=S)O[C@H]2[C@H]1O)O[C@H]3n1cnc2c(N)ncnc21` (some centres unmarked) [2′3′-c-di-AM(PS)2] was tested, and the “anti-S protein IgG titer” value [1] was “became apparent”, the “serum anti-S IgA production” value [1] was “did not elicit the production of serum anti-S IgA” and the “surface expression of CCR7” value [2] was “none of these two agonists activated expression of the CCR7”. The “surface expression of CD80” value [2] was “induced the expression of CD80 and CD86”, the “surface expression of CD86” value [2] was “induced the expression of CD80 and CD86” and the “expression of IFN-β, IL-4, IL-5, and IL-13” value [3] was “induced the expression of IFN-β, IL-4, IL-5, and IL-13 more potently”. For the same compound, the “expression of IL-12A and IL-12B” value [3] was “not induced”, the “antigen-dependent Th responses (IFN-γ for Th1, IL-17A for Th17, IL-4, IL-5, IL-13 for Th2)” value [4] was “induced an antigen-dependent Th2 response” and the “expression of IFN-α” value [5] was “induced the expression of IFN-α”. The “expression of IL-2” value [5] was “not induced by either of these two agonists alone”, the “expression of cytokine genes (TNF-α, IL-1β, IL-6, IL-12A, IL-12B, IL-23A, IFN-β, IFN-γ)” value [5] was “induced the expressions of TNF-α, IL-1β, IL-6, IL-12A, IL-12B, IL-23A, IFN-β, and IFN-γ genes” and the “cytokine gene expression (TNF-α, IL-1β, IL-6, IL-12B, IL-23A, IFN-β)” value [6] was “induced the gene expression of TNF-α, IL-1β, IL-6, IL-12B, IL-23A, and IFN-β”.

For “CpG-2722 (DNA dG*dT*dT*dG*dT*dC*dG*dT*dT*dT*dT*dT*dT*dG*dT*dC*dG*dT*dT)”, the “anti-S protein IgG titer” value [1] was “became apparent”, the “serum anti-S IgA production” value [1] was “did not elicit the production of serum anti-S IgA” and the “surface expression of CCR7” value [2] was “none of these two agonists activated expression of the CCR7”. For the same compound, the “surface expression of CD40” value [2] was “induced expression of CD40”, the “mRNA expression of TNF-α, IL-1β, IL-6, IL-12A, IL-12B, IL-23A, IFN-β, IFN-γ” value [7] was “higher induction by CpG-2722 treatment alone than that induced by the c-di-AM(PS)2 treatment alone” and the “anti-VLP IgG titer” value [8] was “does not further increase the IgG titer”. For the same compound, the “expression of TNF-α, IL-1β, IL-6, IL-12A, IL-12B, IL-23A, IFN-β, IFN-γ” value ([3]; CpG-2722 5 μg/ml, c-di-AM(PS)2 1 μg/ml) was “more potent than c-di-AM(PS)2”, the “antigen-dependent Th responses (IFN-γ for Th1, IL-17A for Th17, IL-4, IL-5, IL-13 for Th2)” value [4] was “preferentially induced antigen-dependent Th1 and Th17 responses” and the “expression of IL-1β” value [5] was “strongly induced”. The “expression of IL-2” value [5] was “not induced by either of these two agonists alone”, the “expression of cytokine genes (TNF-α, IL-1β, IL-6, IL-12A, IL-12B, IL-23A, IFN-β, IFN-γ)” value [5] was “induced the expressions of TNF-α, IL-1β, IL-6, IL-12A, IL-12B, IL-23A, IFN-β, and IFN-γ genes” and the tumor growth suppression [9] was “some level of tumor growth suppression”. For the same compound, the “cytokine gene expression (TNF-α, IL-1β, IL-6, IL-12B, IL-23A, IFN-β)” value [6] was “not observed”.

With `Nc1ncnc2c1ncn2[C@@H]1O[C@@H]2COP(=O)(O)O[C@@H]3[C@H](O)[C@@H](COP(=O)(O)O[C@H]2[C@H]1O)O[C@H]3n1cnc2c(N)ncnc21` [2′3′-c-di-AMP] the tumor growth suppression [9] was “some level of tumor growth suppression”.
